# Test results reported in patent US20190255114A1, “STORAGE OF PLATELETS” (University of Kentucky Research Foundation, priority 2018, published 2019).
# Tests used:
# [1] = tested on: washed platelets from C57BL/6J mice; assay: Thrombin-induced platelet aggregation; assay type: cell-based
# Procedure: Platelets were then added with buffer or 1 mM CaCl2). Washed platelets suspended in Tyrode's solution with 1 mM CaCl2 were used as a control. Platelet aggregation was induced by addition of thrombin (0.025 U/ml).
# [2] = tested on: washed GFP platelets; assay: Clearance of transfused cold-stored washed GFP platelets (flow cytometry); assay type: in vivo, C57BL/6J mice; conditions: 50 uM EGTA, stored at 4° C. for 24 hours, retro-orbital injection
# Procedure: To monitor the life span of transfused platelets in circulation, a method that can easily differentiate the transfused platelets from recipient platelets was developed. Platelets from C57BL/6-Tg(CAGEGFP)1 Osb/J mice (GFP mice) (From Jackson Laboratories) are GFP positive that are distinct from the recipient platelets by flow cytometry assay (FIG. 6A). C57BL/6J mice were injected retro-orbitally with washed GFP platelets (2.5×10^8 per mouse). 60 μl blood was collected from mice and PRP was analyzed by flow cytometry. Quantitative results were expressed as percentage of survived transfused platelets (GFP positive cells at 5 min after transfusion was set to 100%; mean±SD; n=5). […]
# C57BL/6J mice were injected retro-orbitally with fresh washed GFP platelets or GFP platelets stored at 4° C. for 24 hours (2.5×10^8 per mouse) with or without 1 mM RGDS. Blood was collected from mice and platelets were analyzed by flow cytometry. Quantitative results were expressed as percentage of survived transfused platelets (GFP positive cells of transfused fresh platelets at 5 min after transfusion was set to 100%, n=4). […]
# Blood was collected from mice and platelets were analyzed by flow cytometry. Quantitative results were expressed as percentage of survived transfused platelets (GFP positive cells of transfused fresh platelets at 5 min after transfusion was set to 100%, n=4). […]
# [3] = tested on: PRP prepared from healthy donors; assay: Cold storage of human PRP: platelet counts; assay type: cell-based; conditions: human PRP (ACD anticoagulant), various time points
# Procedure: Platelet counts were monitored at various time points. […] Fibrinogen binding to platelets increased after cold storage (FIG. 14B). […] The amount of serotonin secreted in the supernatant was then measured.
# [4] = tested on: washed platelets from C57BL/6J mice; assay: Platelet adhesion and spreading on fibrinogen; assay type: cell-based; conditions: EGTA 100 μM
# Procedure: Platelets were then added with buffer or 1 mM CaCl2). Washed platelets suspended in Tyrode's solution with 1 mM CaCl2 were used as a control. Platelets were then added to polystyrene dishes coated with 50 μg/mL of fibrinogen and incubated at 37° C. for 60 minutes and labeled with Rhodamine-Phalloidin and photographed using a fluorescence microscope. […] This conclusion was further confirmed by a fibrinogen binding assay.
# [5] = target: T1, αIIbβ3 (Mus musculus, UniProt O54890+Q9QUM0); assay: Thrombin-induced fibrinogen binding to platelets (integrin ligand binding function); assay type: cell-based, C57BL/6J mice; conditions: 100 μM EGTA
# T1 construct: Washed platelets from C57BL/6J mice suspended in Tyrode's solution; endogenous in cells; host or cells: washed platelets from C57BL/6J mice
# T1 sequence (Q9QUM0 32-1033): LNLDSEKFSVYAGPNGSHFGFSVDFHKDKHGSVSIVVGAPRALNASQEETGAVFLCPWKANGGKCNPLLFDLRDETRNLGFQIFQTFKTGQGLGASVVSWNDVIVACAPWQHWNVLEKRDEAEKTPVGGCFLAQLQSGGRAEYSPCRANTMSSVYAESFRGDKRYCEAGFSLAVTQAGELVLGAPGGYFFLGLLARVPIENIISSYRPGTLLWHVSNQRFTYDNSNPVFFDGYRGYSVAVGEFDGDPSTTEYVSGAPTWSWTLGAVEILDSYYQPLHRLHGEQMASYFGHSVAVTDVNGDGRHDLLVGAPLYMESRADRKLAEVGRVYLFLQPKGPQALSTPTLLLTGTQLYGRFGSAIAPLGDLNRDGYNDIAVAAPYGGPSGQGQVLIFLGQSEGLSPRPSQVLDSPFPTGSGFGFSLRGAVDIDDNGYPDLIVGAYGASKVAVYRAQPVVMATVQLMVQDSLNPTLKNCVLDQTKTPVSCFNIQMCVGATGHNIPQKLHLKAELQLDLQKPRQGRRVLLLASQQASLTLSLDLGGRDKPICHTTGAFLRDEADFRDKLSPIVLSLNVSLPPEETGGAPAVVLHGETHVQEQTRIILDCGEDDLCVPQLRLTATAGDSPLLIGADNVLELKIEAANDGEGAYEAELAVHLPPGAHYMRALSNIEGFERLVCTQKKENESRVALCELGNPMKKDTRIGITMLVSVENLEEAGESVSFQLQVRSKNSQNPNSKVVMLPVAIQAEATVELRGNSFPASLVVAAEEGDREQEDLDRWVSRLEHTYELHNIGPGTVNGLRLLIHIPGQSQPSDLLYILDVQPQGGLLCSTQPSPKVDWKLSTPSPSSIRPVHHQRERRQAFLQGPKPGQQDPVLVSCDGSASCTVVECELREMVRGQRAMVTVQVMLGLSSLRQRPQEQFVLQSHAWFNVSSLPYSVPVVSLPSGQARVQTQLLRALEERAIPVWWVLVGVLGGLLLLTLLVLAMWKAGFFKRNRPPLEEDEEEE
# T1 sequence (O54890 26-787): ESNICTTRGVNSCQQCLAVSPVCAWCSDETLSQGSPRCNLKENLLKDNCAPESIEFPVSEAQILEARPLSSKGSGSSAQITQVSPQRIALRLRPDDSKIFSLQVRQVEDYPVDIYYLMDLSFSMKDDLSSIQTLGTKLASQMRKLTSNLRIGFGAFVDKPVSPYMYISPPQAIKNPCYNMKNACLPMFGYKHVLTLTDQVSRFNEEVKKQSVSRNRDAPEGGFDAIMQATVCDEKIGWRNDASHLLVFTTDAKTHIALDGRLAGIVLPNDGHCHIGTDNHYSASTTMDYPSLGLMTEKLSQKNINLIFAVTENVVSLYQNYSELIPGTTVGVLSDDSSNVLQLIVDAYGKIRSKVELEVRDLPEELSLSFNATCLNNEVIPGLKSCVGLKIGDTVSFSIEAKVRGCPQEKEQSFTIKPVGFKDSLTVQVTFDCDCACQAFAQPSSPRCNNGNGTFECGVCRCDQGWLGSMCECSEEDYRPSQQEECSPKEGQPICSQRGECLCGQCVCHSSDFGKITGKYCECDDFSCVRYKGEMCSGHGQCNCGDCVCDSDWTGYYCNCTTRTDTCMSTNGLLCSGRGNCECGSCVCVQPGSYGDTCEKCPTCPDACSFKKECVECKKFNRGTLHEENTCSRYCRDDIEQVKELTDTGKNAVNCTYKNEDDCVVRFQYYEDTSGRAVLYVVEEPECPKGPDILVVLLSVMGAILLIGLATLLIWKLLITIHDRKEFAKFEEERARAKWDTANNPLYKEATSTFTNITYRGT
# Procedure: Platelets were then added with buffer or 1 mM CaCl2). Washed platelets suspended in Tyrode's solution with 1 mM CaCl2 were used as a control. Platelets were incubated with Oregon Green-labeled fibrinogen and thrombin (0.1 U/ml) at 22° C. for 30 min. Quantitative results were expressed as fibrinogen binding indices (geomean of fluorescence intensity of stimulated platelets/geomean of fluorescence intensity of unstimulated platelets; n=3).
# [6] = tested on: washed platelets from C57BL/6 mice; assay: Cold storage of washed mouse platelets: aggregation and single platelet counts; assay type: cell-based; conditions: presence of EGTA, 4° C. for various time
# Procedure: To investigate the mechanism of the rapid clearance after cold storage, washed platelets from C57BL/6 mice were suspended in Ca^++ free Tyrode's solution (12 mM NaHCO3, 138 mM NaCl, 5.5 mM glucose, 2.9 mM KCl, 2 mM MgCl2, 0.42 mM NaH2PO4, 10 mM HEPES, pH 7.4). and stored at RT or 4° C. Washed platelets from C57BL/6 mice were stored at RT or 4° C. for 24 hours. After storage, platelets were incubated with Oregon Green-labeled fibrinogen at 22° C. for 30 min. Fibrinogen binding to platelets was analyzed by flow cytometry. […] To confirm this observation, single platelet count was measured using a HEMAVET HV950FS multispecies hematology analyzer. Indeed, platelet counts were reduced dramatically after platelets were stored at 4° C. for over 24 hours (FIG. 1B).
# To determine the molecular mechanism by which cold induces platelet activation, washed platelets prepared from C57BL/6 mice were stored at RT, cold, or cold with O-sialoglycoprotein endopeptidase (OSGE). […] GPIbα-dependent platelet activation is one of the major mechanisms leading to rapid clearance of cold-stored platelets.
# If cold-induced aggregation is due to integrin activation, integrin inhibitors should be able to inhibit this process. Washed platelets from C57BL/6 mice, suspended in Ca^++ free Tyrode's solution, were added with 1 mM RGDS and stored at 4° C. for 24 hours. […]
# [7] = tested on: PRP from C57BL/6 mice; assay: Cold storage of mouse PRP: aggregation and platelet counts; assay type: cell-based; conditions: PRP with EGTA
# Source text: This conclusion is drawn based on the experiments using washed platelets. Although a small portion of platelet products uses platelet additive solution (PAS), most platelet products used for transfusion are in plasma. Therefore, whether PRP has a similar phenotype as observed in washed platelets was examined.
# [8] = tested on: cold-stored PRP from C57BL/6-Tg(CAGEGFP)1 Osb/J; assay: Clearance of transfused cold-stored GFP platelets in PRP; assay type: in vivo, C57BL/6J mice; conditions: inclusion of EGTA, retro-orbital injection
# Procedure: C57BL/6J mice were injected retro-orbitally with fresh or cold-stored PRP (2.5×10^8 per mouse) from C57BL/6-Tg(CAGEGFP)1 Osb/J. Blood was collected from the recipients and platelets were analyzed by flow cytometry, n=4). Rapid clearance of cold-stored platelets in PRP is less severe than washed platelets.
smiles,measurement,setting,value
"O=C(O)CN(CCOCCOCCN(CC(=O)O)CC(=O)O)CC(=O)O [EGTA, ethylene glycol-bis(β-aminoethyl ether)-N,N,N′,N′-tetraacetic acid]",platelet aggregation induced by thrombin,"[1]; EGTA 100 μM at RT, thrombin 0.025 U/ml",inhibited platelet aggregation
same,reversibility of the inhibition of platelet aggregation,"[1]; EGTA 100 μM, then 1 mM CaCl2",reversible
same,platelets that stayed in circulation for more than 2 hours,[2],About 75%
same,rapid clearance of cold-stored platelets,[2],significantly inhibited rapid clearance
same,decrease of platelet counts after storage at 4° C.,[3],inhibited
same,platelet adhesion and spreading on fibrinogen,"[4]; 50 μg/mL fibrinogen, 37° C. for 60 minutes",inhibited platelet adhesion and spreading on fibrinogen
same,reversal of the inhibition of adhesion and spreading,[4]; then 1 mM CaCl2,completely reversed
same,reversal of the inhibition of fibrinogen binding,[5]; then 1 mM CaCl2,reversed
same,thrombin-induced fibrinogen binding to platelets,"[5]; thrombin 0.1 U/ml, 22° C. for 30 min",completely inhibited
same,cold-induced platelet aggregation,[6],completely inhibited cold-induced platelet aggregation
same,reduction in platelet counts,[6],completely inhibited
same,reduction in platelet counts by cold storage,[7]; 4° C. for various time,effectively inhibited reduction in platelet counts
same,platelet aggregation in PRP,[7]; cold storage,inhibited platelet aggregation
same,quick clearance of cold-stored platelets in PRP,[8],significantly reduced quick clearance
